Data reported in patent US20230159436A1, “APPLICATIONS OF AMIDE ANALOGS OF TRITERPENES IN CURES OF CANCER AND OTHER DISEASES” (Pacific Arrow Limited, priority 2021, published 2023).

Columns and labels:
T98G = test: MTT assay, brain (T98G); type: cell-based
Description: (§1) Cells. HTB-9 (bladder), HeLa-S3 (cervix), DU145 (prostate), H460 (lung), MCF-7 (breast), K562 (leukemia), HCT116 (colon), HepG2 (liver), U2OS (bone), T98G (brain), SK-MEL-5 (Skin) and OVCAR 3, ES2 (ovary), Pancreas (Capan), Mouth (KB), Kidney (A498).
(§2) MTT Assay. The procedure for MTT assay followed the method described by Carmichael et al. (1987) with modifications. The cells were seeded into a 96-well plate at for 24 hours before drug-treatment. The cells were then exposed to the drugs for 48, 72, or 96 hours. After the drug-treatment, MTT (0.5 mg/mL) was added to cultures and incubated for an hour. The formazan (product of the reduction of tetrazolium by viable cells) formed and was dissolved with DMSO and the O.D. at 490 nm, and was measured by an ELISA reader. The MTT level of the cells before drug-treatment was also measured (T0). The % cell-growth (% G) is calculated as: % G=(TD−T0/TC−T0)×100(1), where TC or TD represents O.D. readings of control or drug-treated cells.
(§3) When T0>TD, then the cytotoxicity (LC) expressed as % of the control is calculated as: % LC=(TD−T0/T0)×100(2).

K562 = test: MTT assay, leukemia (K562); type: cell-based, human
Description: as §1, §2, §3

K562 cells = test: Apoptosis in K562 cells (Annexin V / propidium iodide); type: cell-based, human
Description: Experiment 34: Apoptosis in K562 Cells Induced by Tig-S • 1. Cells: Human leukemia cells K562 cultured in RPMI1640 medium. • 2. Drug: Tig-S (1000× stock solution in DMSO). • 3. Start cells concentration: 500000/ml. • 4. Cells were cultured with drug (0-20 ug/ml) for Two days. • 5. Collect cells from culture (1-4 million) by centrifugation (136×g for 5 min. remove supernatant). • 6. Wash cells with 1 ml of cold PBS, collect cells by centrifugation (136×g, 5 min, remove supernatant). • 7. Re-suspend cells in 200 ul Binding buffer (10 mM HEPES, 140 mM NaCl, 2.5 mM CaCl2, pH 7.4). • 8. Stained cells by adding 10 ul Annexin V (Alexa Fluor 488, Invitrogen cat #A13201), and 2 ul Propidium iodide (1 mg/ml in water) to cell suspension. Mix. • 9. Sit at Room temperature for 15 min. • 10. Wash cells with 1 ml binding buffer. Collect cells by centrifugation. • 11. Re-suspend cells with in 1 ml of binding buffer for analysis by flow cytometry. • 12. Flow Cytometry analysis was performed in Baylor Core Facility with a LSRII instrument. • 13. Analysis: Control cells stained with PI or Annexin V-488 (Annexin V-FITC) alone were served as references. About 50000 cells were analyzed for each sample. • 14. Cell distribution in following groups: live, early apoptosis, late-apoptosis, total apoptosis and dead cells were determined. • 15.

IC50 of leukemia (K562) (K562)	SMILES	IC50 of brain (T98G) (T98G)	mechanism of cell-death (K562 cells)
2 µg/mL	CC=C(C)C(=O)OCC1(C)C(O)CCC2(C)C1CCC1(C)C2CC=C2C3CC(C)(C)C(O)C(O)C3(COC(=O)C(C)=CC)C(O)CC21C (stereo not drawn) [Tig-R, 24,28-O-Tigloyl-3β,16α,21β,22α,24β,28-hexahydroxyolean-12-ene]	8 µg/mL	
	CC=C(C)C(=O)OCC1(C)C(O)CCC2(C)C1CCC1(C)C2CC=C2C3CC(C)(C)C(OC(=O)C(C)=CC)C(O)C3(CO)C(O)CC21C (stereo not drawn) [Tig-S]		induces cell-death by the apoptosis mechanism
